Test system: western and northern corn rootworm
Experiment: Field trial, corn rootworm damage by Iowa class and synergy test, Example 3
Assay type: in vivo
Excerpt: A field trial was established and completed in accordance with pertinent protocols and in conformance with USDA notification requirements. The purpose of the trial was to determine the efficacy of transgenic event Cry3Bb.11231 in corn seed in combination with corn rootworm seed treatments using imidacloprid.
For each growing site that was selected, the plot design included the following:
The following seed treatment combinations were used for each growing area:
All seed treatments with pesticides were carried out as described in Example 1. In seed treatment number 1 and 2, Gaucho® was used for wire worm protection, but at levels sufficiently low that it would be expected to have no effect on corn rootworms (i.e., at a treatment level of about 60 gm of active/100 kg seed or 0.16 mg active/kernel), otherwise, seed receiving treatment number 2 had only transgenic event Cry3Bb.11231 and no pesticide treatment that would be expected to be effective against corn rootworm.
For seeds having treatments numbered 3 through 5, the pesticides were applied by the methods described in Example 1. For seeds having treatment numbers 6 and 7, commercially available Force® 3G and Lorsban® 15G were applied to the soil in a 5″ band at the time of sowing. The levels of application are as shown and are within the ranges recommended for standard commercial practice.
Corn seeds to be tested were planted and grown at four different locations across several Midwestern states in the United States corn belt according to the protocol described above.
The determination of damage by corn root worm was made according to the protocol described in Example 2.
Cry3Bb.11231 transgenic event was tested for possible synergy at a level of rootworm damage of 3-6. In the first test, shown in Table 2, the percentage of test plants having damage levels of from 3 to 6, on the Iowa 1-6 Scale, was determined for the control and for seeds treated with the pesticide at two levels, and for seeds having the transgenic event, alone and in combination. The following formula was then used to calculate a “synergy threshold”: (% of control Cry3Bb.11231)*(% of control imidacloprid treatment)/100.
This threshold was compared against the percent of control for the treatment combination (i.e., Cry3Bb.11231 with imidacloprid @ 400 gm/100 kg). If the treatment combination percent of control was below the threshold, then it was concluded that there was synergy.
It was believed that the measurement of rootworm damage at higher damage levels (i.e., levels 3-6) is a useful indicator that correlates with subsequent yield loss due to such damage. The reason for this is that rootworm damage at levels 1 and 2 seldom causes corn plants to fall over and lodge, and such minimal root loss is not believed to reduce the number or weight of kernels per ear. However, root damage at levels of 3 and above increasingly causes lodging and loss of yield. Therefore, it is believed that the summed damage levels of 3-6 (and in some cases, 4-6 and 5 and 6), provides a useful indication of the effect of corn rootworm damage on subsequent corn yield.

Structure (SMILES): O=[N+]([O-])NC1=NCCN1Cc1ccc(Cl)nc1 [Imidacloprid, 1-[(6-chloro-3-pyridinyl)methol]-N-nitro-2-imidazolidinimime]
- effectiveness against corn rootworm damage (imidacloprid at 400 gm/100 kg of seed): effective against corn rootworm damage
- CORN ROOTWORM DAMAGE IN EACH IOWA CLASS (IOWA 1-6 SCALE) 1 (number of plants in Iowa class 1, imidacloprid at 400 g/100 kg seed): 3
- CORN ROOTWORM DAMAGE IN EACH IOWA CLASS (IOWA 1-6 SCALE) 2 (number of plants in Iowa class 2, imidacloprid at 400 g/100 kg seed): 15
- CORN ROOTWORM DAMAGE IN EACH IOWA CLASS (IOWA 1-6 SCALE) 3 (number of plants in Iowa class 3, imidacloprid at 400 g/100 kg seed): 36
- CORN ROOTWORM DAMAGE IN EACH IOWA CLASS (IOWA 1-6 SCALE) 4 (number of plants in Iowa class 4, imidacloprid at 400 g/100 kg seed): 21
- CORN ROOTWORM DAMAGE IN EACH IOWA CLASS (IOWA 1-6 SCALE) 5 (number of plants in Iowa class 5, imidacloprid at 400 g/100 kg seed): 5
- CORN ROOTWORM DAMAGE IN EACH IOWA CLASS (IOWA 1-6 SCALE) 6 (number of plants in Iowa class 6, imidacloprid at 400 g/100 kg seed): 0

— patent publication US9816104B2, “Compositions and methods for deploying a transgenic refuge as a seed blend” (priority 2000, dated 2017)
